Results on 34 molecules are retold here after patent US20160039825A1 (BIOGEN MA INC., priority 2013, published 2016).

Where a name gives a salt, the structure may show the parent alone.

This assay addresses T1, Human ATX protein (Homo sapiens, UniProt Q13822).
T1 construct: made in house
The experiment in a line: Autotaxin (ATX) assay, FRET with FS-3 substrate. It is filed as biochemical. To be noted: upper bound bins (no greater than 100, 250 or 500 nM); FS-3 2 μM, ATX 1.0 μg/mL. An excerpt:
ATX (Autotaxin) is a 125 KDa glycoprotein with lysophospholipase D (LPLD) activity that generates the bioactive lipid lysophosphatidic acid (LPA) from lysophosphatidylcholine (LPC). The ATX biochemical assay utilizes a FRET (fluorescence resonance energy transfer) technology platform. The fluorescence signal of FRET substrate FS-3 is quenched due to intra-molecular FRET of a fluorophore to a non-fluorescing quencher (Ferguson, C. G., et al., Org Lett. 2006 May 11; 8(10): 2023-2026, which is incorporated by reference in its entirety). ATX catalyzes the hydrolysis of the substrate which separates the dabsyl quencher from the fluorescein reporter, which becomes fluorescent. The reaction is monitored by a SpectraMax M5 (Molecular Devices, Sunnyvale, Calif.) with at excitation wavelength 485 nm and emission wavelength […].
Fatty acid free-BSA (Sigma A8806): 10 mg/mL in H2O, stored at 4° C.
2×ATX assay buffer: 100 mM Tris, 280 mM NaCl, 10 mM KCl, 2 mM CaCl2, 2 mM MgCl2, pH 7.4.
Human ATX protein: expressed and purified in house. Stored at −80° C.
Substrate FS-3 (Echelon, L-2000): 100 μg in 77.74 μL H2O (1 mM stock), stored at −20° C.
384-well flat bottom plates—Corning #3575.
Compound dilution—All compounds were provided at 10 mM in 100% DMSO. In the first well, 2 μL of 10 mM compound was added to 78 μL of DMSO (1:40 dilution). In subsequent wells 3-fold dilution (total 10 dilutions) were performed.
1×ATX assay buffer was made up with a final concentration of 1 mg/mL fatty acid free-BSA using 2×ATX assay buffer, 10 mg/ml fatty acid free-BSA and ddH2O.
ATX protein was diluted with 1×ATX assay buffer to a concentration of 1.32 μg/mL (1.32×). 38 μL was added per well to the assay plate. The final concentration of ATX in the reaction as 1.0 μg/mL.
2 μL per well of compounds was transferred to provide the desired concentration. The plate was centrifuged, then incubated at room temperature for 30 minutes on the shaker.
FS-3 was diluted with 1×ATX assay buffer to a concentration of FS-3 of 10 μM (5×). Then, 10 μL was added per well to the assay plate. The final concentration of FS-3 in the reaction was 2 μM. The plate was centrifuged. The plate was kept shaking at room temperature for 2 hours. Because FS-3 substrate is light sensitive, plates were kept covered and protected from light.
Fluorescence was measured using SpectraMax M5 (excitation at 485 nm/emission at 538 nm, top read).

In the case of `O=C(CN1CCCC1)c1cc2n(n1)CCCN(C(=O)OCc1cc(Cl)cc(C(F)(F)F)c1)C2` [Example 273], the IC50 was at most 100 nM. `CC(N)c1cc2n(n1)CCN(C(=O)OCc1cc(C(F)(F)F)cc(C(F)(F)F)c1)C2` (stereo not shown) [Example 395, 3,5-bis(Trifluoromethyl)benzyl 2-(1-aminoethyl)-6,7-dihydropyrazolo[1,5-a]pyrazine-5(4H)-carboxylate] registered an IC50 of at most 100 nM. The molecule `O=C(OCc1cc(Cl)cc(C(F)(F)F)c1)N1CCCn2nc(C(=O)N3CCC4CNCC43)cc2C1` (stereo not shown) [Example 165] gave an IC50 of at most 100 nM. As for `CC(C)(C)OC(=O)N1CCC=C(c2cc3n(n2)CCN(C(=O)OCc2cc(C(F)(F)F)cc(C(F)(F)F)c2)C3)C1` [Example 498], the figure is at most 100 nM; as for `O=C(OCc1cc(C(F)(F)F)cc(C(F)(F)F)c1)N1CCn2nc(-c3cccnc3)cc2C1` [Example 496, 3,5-bis(trifluoromethyl)benzyl 2-(pyridin-3-yl)-6,7-dihydropyrazolo[1,5-a]pyrazine-5(4H)-carboxylate], at most 100 nM. `O=C(OCc1cc(Cl)cc(C(F)(F)F)c1)N1CCCn2nc(C(=O)N3CC4CCC3CN4)cc2C1` (stereo not shown) [Example 197]: the half-maximal inhibitory concentration (IC50) was at most 100 nM.

The molecule `O=C(O)c1cc2n(n1)CCCN(C(=O)CCc1cc(C(F)(F)F)cc(C(F)(F)F)c1)C2` [Example 82, 5-(3-(3,5-bis(Trifluoromethyl)phenyl)propanoyl)-5,6,7,8-tetrahydro-4H-pyrazolo[1,5-a][1,4]diazepine-2-carboxylic acid] displayed an IC50 of at most 100 nM. `CCN1CCN(C(=O)c2cc3n(n2)CCCN(C(=O)OCc2cc(C(F)(F)F)cc(C(F)(F)F)c2)C3)C2(CC2)C1` [Example 237] showed a half-maximal inhibitory concentration (IC50) of at most 100 nM. Turning to `O=C(OCc1cc(C(F)(F)F)cc(C(F)(F)F)c1)N1CCCn2nc(CN3CCCCC3)cc2C1` [Example 291], the half-inhibitory concentration (IC50) was at most 250 nM.

The molecule `O=C(OCc1cc(C(F)(F)F)cc(C(F)(F)F)c1)N1CCCn2nc(S(=O)(=O)N3C4CCCC3CC4)cc2C1` [Example 305] had an IC50 of at most 100 nM. As for `O=C(OCc1cc(C(F)(F)F)cc(C(F)(F)F)c1)N1CCn2nc(C(=O)N3CCC(O)CC3)cc2C1` [Example 490], the half-maximal inhibitory concentration (IC50) is at most 100 nM. The figure for `O=C(OCc1cc(C(F)(F)F)cc(C(F)(F)F)c1)N1CCCn2nc(CN[C@H]3CC[C@H](C(=O)O)CC3)cc2C1` [Example 289] is at most 250 nM; for `CC1COCCN1CC(=O)c1cc2n(n1)CCCN(C(=O)OCc1cc(Cl)cc(C(F)(F)F)c1)C2` (stereo not shown) [Example 257, 3-chloro-5-(trifluoromethyl)benzyl 2-(2-(3-methylmorpholino)acetyl)-7,8-dihydro-4H-pyrazolo[1,5-a][1,4]diazepine-5(6H)-carboxylate] it is at most 100 nM. The molecule `O=C(OCc1cc(C(F)(F)F)cc(C(F)(F)F)c1)N1CCn2nc(N3CCNCC3)cc2C1` [Example 394, 3,5-bis(trifluoromethyl)benzyl 2-(piperazin-1-yl)-6,7-dihydropyrazolo[1,5-a]pyrazine-5(4H)-carboxylate] showed an IC50 of at most 100 nM. As for `NC1CCN(C(=O)c2cc3n(n2)CCN(C(=O)OCc2cc(C(F)(F)F)cc(C(F)(F)F)c2)C3)CC1` [Example 422, 3,5-bis(trifluoromethyl)benzyl 2-(4-aminopiperidine-1-carbonyl)-6,7-dihydropyrazolo[1,5-a]pyrazine-5(4H)-carboxylate hydrochloride], the figure is at most 100 nM; as for `CC(C)(C)OC(=O)N1CCC(c2cc3n(n2)CCCN(C(=O)OCc2cc(C(F)(F)F)cc(C(F)(F)F)c2)C3)CC1` [Example 374, 3,5-bis(trifluoromethyl)benzyl 2-(1-(tert-butoxycarbonyl)piperidin-4-yl)-7,8-dihydro-4H-pyrazolo[1,5-a][1,4]diazepine-5(6H)-carboxylate], at most 100 nM.

For the molecule `O=C(OCc1cc(C(F)(F)F)cc(C(F)(F)F)c1)N1CCCn2cncc2C1` [Example 132, 3,5-Bis(trifluoromethyl)benzyl 6,7-dihydro-5H-imidazo[1,5-a][1,4]diazepine-8(9H)-carboxylate], the IC50 was at most 100 nM. The figure for `CN1CCN(C(=O)c2cc3n(n2)CCN(C(=O)OCc2cc(C(F)(F)F)cc(C(F)(F)F)c2)C3)CC1` [Example 489] is at most 100 nM. `CC(C)(C(=O)O)c1cc2n(n1)CCCN(C(=O)OCc1cc(C(F)(F)F)cc(C(F)(F)F)c1)C2` [Example 388] gave an IC50 of at most 100 nM. The molecule `CN1CC=C(c2cc3n(n2)CCCN(C(=O)OCc2cc(C(F)(F)F)cc(C(F)(F)F)c2)C3)CC1` [Example 371, 3,5-bis(trifluoromethyl)benzyl 2-(1-methyl-1,2,3,6-tetrahydropyridin-4-yl)-7,8-dihydro-4H-pyrazolo[1,5-a][1,4]diazepine-5(6H)-carboxylate] showed a concentration for half-maximal inhibition (IC50) of at most 100 nM. `CN1CCN(C(=O)c2cc3n(n2)CCCN(C(=O)OCc2cc(Cl)cc(C(F)(F)F)c2)C3)C(C#N)C1` (stereo not shown) [Example 183] had an IC50 of at most 100 nM. Turning to `CC(c1cc2n(n1)CCN(C(=O)OCc1cc(C(F)(F)F)cc(C(F)(F)F)c1)C2)N1CCN(C(=O)OC(C)(C)C)CC1` (stereo not shown) [Example 448], the IC50 was at most 100 nM. In the case of `O=C(O)C1CCN(C(=O)c2cc3n(n2)CCN(C(=O)OCc2cc(C(F)(F)F)cc(C(F)(F)F)c2)C3)CC1` [Example 418], the half-maximal inhibitory concentration (IC50) was at most 100 nM. The figure for `CC(c1cc2n(n1)CCCN(C(=O)OCc1cc(C(F)(F)F)cc(C(F)(F)F)c1)C2)N1CCC(F)CC1` (stereo not shown) [Example 512] is at most 100 nM; for `O=C(O)C1CCN(C(=O)c2cc3n(n2)CCCN(C(=O)OCc2cc(Cl)cc(Cl)c2)C3)CC1` [Example 87, 1-(5-(((3,5-Dichlorobenzyl)oxy)carbonyl)-5,6,7,8-tetrahydro-4H-pyrazolo[1,5-a][1,4]diazepine-2-carbonyl)piperidine-4-carboxylic acid] it is at most 100 nM. For `CCOC(=O)c1cc2n(n1)CCCN(C(=O)OCc1cc(C)cc(C(F)(F)F)c1)C2` [Example 105, 2-Ethyl 5-(3-methyl-5-(trifluoromethyl)benzyl) 7,8-dihydro-4H-pyrazolo[1,5-a][1,4]diazepine-2,5(6H)-dicarboxylate], the IC50 was at most 100 nM. In turn, `CN1CCN(C(=O)c2cc3n(n2)CCCN(C(=O)OCc2cc(C(F)(F)F)cc(C(F)(F)F)c2)C3)C2(CCCC2)C1` [Example 238] returned a 50% inhibitory concentration (IC50) of at most 100 nM. Turning to `NC1CCN(C(=O)c2cc3n(n2)CCCN(C(=O)OCc2cc(Cl)cc(Cl)c2)C3)CC1` [Example 26, 3,5-Dichlorobenzyl 2-(4-aminopiperidine-1-carbonyl)-7,8-dihydro-4H-pyrazolo[1,5-a][1,4]diazepine-5(6H)-carboxylate], the IC50 is at most 100 nM. As for `O=C(O)C1CC2CCCC(C1)N2C(=O)c1cc2n(n1)CCCN(C(=O)NCc1cc(Cl)cc(Cl)c1)C2` (stereo not shown) [Example 49, 9-(5-((3,5-Dichlorobenzyl)carbamoyl)-5,6,7,8-tetrahydro-4H-pyrazolo[1,5-a][1,4]diazepine-2-carbonyl)-9-azabicyclo[3.3.1]nonane-3-carboxylic acid], the IC50 was at most 100 nM.

With `O=C(N[C@H]1CC[C@@H](C(=O)O)CC1)c1cc2n(n1)CCCN(C(=O)OCc1cc(Cl)cc(Cl)c1)C2` [Example 85, (cis)-4-(5-(((3,5-Dichlorobenzyl)oxy)carbonyl)-5,6,7,8-tetrahydro-4H-pyrazolo[1,5-a][1,4]diazepine-2-carboxamido)cyclohexanecarboxylic acid], the IC50 is at most 100 nM. The molecule `CC1CN(C(=O)OCc2cc(C(F)(F)F)cc(C(F)(F)F)c2)Cc2cc(C(=O)O)nn2C1` (stereo not shown) [Example 111, 5-(((3,5-Bis(trifluoromethyl)benzyl)oxy)carbonyl)-7-methyl-5,6,7,8-tetrahydro-4H-pyrazolo[1,5-a][1,4]diazepine-2-carboxylic acid] showed an IC50 of at most 100 nM. Take `CN1C2CCCC1CN(C(=O)c1cc3n(n1)CCCN(C(=O)OCc1cc(Cl)cc(C(F)(F)F)c1)C3)C2` [Example 217]: the IC50 was at most 100 nM. In turn, `CC1CCN(C(=O)c2cc3n(n2)CCCN(C(=O)OCc2cc(Cl)cc(Cl)c2)C3)CC1` [Example 21, 3,5-Dichlorobenzyl 2-(4-methylpiperidine-1-carbonyl)-7,8-dihydro-4H-pyrazolo[1,5-a][1,4]diazepine-5(6H)-carboxylate] had an IC50 of at most 100 nM. As for `CC(C)(C)OC(=O)N1CC2CCC(C1)N2C(=O)c1cc2n(n1)CCN(C(=O)OCc1cc(C(F)(F)F)cc(C(F)(F)F)c1)C2` [Example 474], the figure is at most 100 nM.
